Source: PubChem BioAssay AID256 (DTP/NCI, 2004)
Several values for one entry are separate records, joined by “and”; a condition that tells them apart may be missing. Equal values may be shown once. Inconclusive results and toxic doses are left out.

Tested on: CD2F1 mice, L1210 leukemia ip, survival T/C
Test: NCI In Vivo Anticancer Drug Screen. Data for tumor model L1210 Leukemia (intraperitoneal) in CD2F1 (CDF1) mice
Conditions: higher = longer survival
Summary of the method: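 Activity against a transplanted murine tumor was judged by comparing the compound group with a vehicle group. The outcome in the treated animals was divided by that in the controls.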

Structure (SMILES): O=C(O)c1ccc(C(=O)O)c(C(=O)O)c1.[NH-]C1CCCCC1[NH-].[Pt+2]
- T/C (endpoint: mean survival time, dose: 0.39 mg/kg/injection, schedule: Q01DX009 (ip), vehicle: sodium bicarbonate): 123 % of control
- T/C (endpoint: mean survival time, dose: 0.39 mg/kg/injection, schedule: Q04DX003 (ip), vehicle: other): 115 % of control
- T/C (endpoint: mean survival time, dose: 0.78 mg/kg/injection, schedule: Q01DX009 (ip), vehicle: sodium bicarbonate): 174 % of control and 200 % of control
- T/C (endpoint: mean survival time, dose: 0.78 mg/kg/injection, schedule: Q04DX003 (ip), vehicle: other): 120 % of control
- T/C (endpoint: mean survival time, dose: 0.78 mg/kg/injection, schedule: Q04DX003 (ip), vehicle: sodium bicarbonate): 119 % of control
- T/C (endpoint: mean survival time, dose: 1.56 mg/kg/injection, schedule: Q01DX009 (ip), vehicle: sodium bicarbonate): 172 % of control and 325 % of control
- T/C (endpoint: mean survival time, dose: 1.56 mg/kg/injection, schedule: Q04DX003 (ip), vehicle: sodium bicarbonate): 119 % of control
- T/C (endpoint: mean survival time, dose: 3.12 mg/kg/injection, schedule: Q01DX009 (ip), vehicle: sodium bicarbonate): 155 % of control and 196 % of control and 251 % of control
- T/C (endpoint: mean survival time, dose: 3.13 mg/kg/injection, schedule: Q04DX003 (ip), vehicle: other): 183 % of control
- T/C (endpoint: mean survival time, dose: 6.25 mg/kg/injection, schedule: Q01DX009 (ip), vehicle: sodium bicarbonate): 190 % of control
- T/C (endpoint: mean survival time, dose: 6.25 mg/kg/injection, schedule: Q04DX003 (ip), vehicle: other): 240 % of control and 263 % of control
- T/C (endpoint: mean survival time, dose: 6.25 mg/kg/injection, schedule: Q04DX003 (ip), vehicle: sodium bicarbonate): 158 % of control
- T/C (endpoint: mean survival time, dose: 8.0 mg/kg/injection, schedule: Q01DX005 (oral), vehicle: sodium bicarbonate): 113 % of control and 120 % of control and 101 % of control
- T/C (endpoint: mean survival time, dose: 12.5 mg/kg/injection, schedule: Q01DX009 (ip), vehicle: sodium bicarbonate): 227 % of control and 97 % of control
- T/C (endpoint: mean survival time, dose: 12.5 mg/kg/injection, schedule: Q04DX003 (ip), vehicle: other): 273 % of control and 291 % of control
- T/C (endpoint: mean survival time, dose: 12.5 mg/kg/injection, schedule: Q04DX003 (ip), vehicle: sodium bicarbonate): 247 % of control
- T/C (endpoint: mean survival time, dose: 16.0 mg/kg/injection, schedule: Q01DX005 (oral), vehicle: sodium bicarbonate): 100 % of control and 105 % of control
- T/C (endpoint: mean survival time, dose: 25.0 mg/kg/injection, schedule: Q04DX003 (ip), vehicle: other): 328 % of control and 444 % of control
- T/C (endpoint: mean survival time, dose: 25.0 mg/kg/injection, schedule: Q04DX003 (ip), vehicle: sodium bicarbonate): 186 % of control
- T/C (endpoint: mean survival time, dose: 32.0 mg/kg/injection, schedule: Q01DX005 (oral), vehicle: sodium bicarbonate): 108 % of control
- T/C (endpoint: mean survival time, dose: 64.0 mg/kg/injection, schedule: Q01DX005 (oral), vehicle: sodium bicarbonate): 108 % of control
- T/C (endpoint: mean survival time, dose: 128.0 mg/kg/injection, schedule: Q01DX005 (oral), vehicle: sodium bicarbonate): 113 % of control and 103 % of control
- T/C (endpoint: mean survival time, dose: 256.0 mg/kg/injection, schedule: Q01DX005 (oral), vehicle: sodium bicarbonate): 116 % of control and 121 % of control and 111 % of control
- T/C (endpoint: median survival time, dose: 0.58 mg/kg/injection, schedule: Q01DX009 (ip), vehicle: sodium bicarbonate): 156 % of control
- T/C (endpoint: median survival time, dose: 0.87 mg/kg/injection, schedule: Q01DX009 (ip), vehicle: water): 101 % of control and 112 % of control
- T/C (endpoint: median survival time, dose: 1.2 mg/kg/injection, schedule: Q01DX009 (ip), vehicle: sodium bicarbonate): 361 % of control
- T/C (endpoint: median survival time, dose: 1.3 mg/kg/injection, schedule: Q01DX009 (ip), vehicle: water): 115 % of control and 107 % of control
- T/C (endpoint: median survival time, dose: 1.8 mg/kg/injection, schedule: Q01DX009 (ip), vehicle: sodium bicarbonate): 313 % of control
- T/C (endpoint: median survival time, dose: 2.0 mg/kg/injection, schedule: Q01DX009 (ip), vehicle: water): 122 % of control and 101 % of control
- T/C (endpoint: median survival time, dose: 2.7 mg/kg/injection, schedule: Q01DX009 (ip), vehicle: sodium bicarbonate): 240 % of control
- T/C (endpoint: median survival time, dose: 3.0 mg/kg/injection, schedule: Q01DX009 (ip), vehicle: sodium bicarbonate): 357 % of control
- T/C (endpoint: median survival time, dose: 3.13 mg/kg/injection, schedule: Q04DX003 (ip), vehicle: other): 154 % of control and 280 % of control
- T/C (endpoint: median survival time, dose: 3.13 mg/kg/injection, schedule: Q04DX003 (ip), vehicle: sodium bicarbonate): 174 % of control
- T/C (endpoint: median survival time, dose: 3.5 mg/kg/injection, schedule: Q01DX009 (ip), vehicle: water): 107 % of control
- T/C (endpoint: median survival time, dose: 4.0 mg/kg/injection, schedule: Q01DX009 (ip), vehicle: sodium bicarbonate): 166 % of control
- T/C (endpoint: median survival time, dose: 4.5 mg/kg/injection, schedule: Q01DX009 (ip), vehicle: sodium bicarbonate): 237 % of control
- T/C (endpoint: median survival time, dose: 5.0 mg/kg/injection, schedule: Q04DX003 (ip), vehicle: sodium bicarbonate): 176 % of control and 186 % of control and 195 % of control
- T/C (endpoint: median survival time, dose: 5.24 mg/kg/injection, schedule: Q04DX003 (ip), vehicle: sodium bicarbonate): 158 % of control
- T/C (endpoint: median survival time, dose: 5.3 mg/kg/injection, schedule: Q01DX009 (ip), vehicle: sodium bicarbonate): 182 % of control
- T/C (endpoint: median survival time, dose: 6.25 mg/kg/injection, schedule: Q04DX003 (ip), vehicle: other): 202 % of control and 313 % of control
- T/C (endpoint: median survival time, dose: 6.25 mg/kg/injection, schedule: Q04DX003 (ip), vehicle: saline): 265 % of control
- T/C (endpoint: median survival time, dose: 6.25 mg/kg/injection, schedule: Q04DX003 (ip), vehicle: sodium bicarbonate): 154 % of control and 348 % of control
- T/C (endpoint: median survival time, dose: 7.78 mg/kg/injection, schedule: Q04DX003 (ip), vehicle: sodium bicarbonate): 198 % of control
- T/C (endpoint: median survival time, dose: 8.0 mg/kg/injection, schedule: Q01DX009 (ip), vehicle: water): 180 % of control
- T/C (endpoint: median survival time, dose: 8.3 mg/kg/injection, schedule: Q01DX009 (ip), vehicle: water): 277 % of control and 108 % of control
- T/C (endpoint: median survival time, dose: 10.0 mg/kg/injection, schedule: Q04DX003 (ip), vehicle: sodium bicarbonate): 231 % of control and 247 % of control and 430 % of control
- T/C (endpoint: median survival time, dose: 11.81 mg/kg/injection, schedule: Q04DX003 (ip), vehicle: sodium bicarbonate): 295 % of control
- T/C (endpoint: median survival time, dose: 12.0 mg/kg/injection, schedule: Q01DX009 (ip), vehicle: water): 298 % of control
- T/C (endpoint: median survival time, dose: 12.5 mg/kg/injection, schedule: Q04DX003 (ip), vehicle: other): 202 % of control
- T/C (endpoint: median survival time, dose: 12.5 mg/kg/injection, schedule: Q04DX003 (ip), vehicle: saline): 361 % of control
- T/C (endpoint: median survival time, dose: 12.5 mg/kg/injection, schedule: Q04DX003 (ip), vehicle: sodium bicarbonate): 309 % of control and 348 % of control
- T/C (endpoint: median survival time, dose: 13.0 mg/kg/injection, schedule: Q04DX003 (ip), vehicle: sodium bicarbonate): 231 % of control
- T/C (endpoint: median survival time, dose: 16.0 mg/kg/injection, schedule: Q01DX009 (ip), vehicle: water): 240 % of control
- T/C (endpoint: median survival time, dose: 17.74 mg/kg/injection, schedule: Q04DX003 (ip), vehicle: sodium bicarbonate): 214 % of control
- T/C (endpoint: median survival time, dose: 20.0 mg/kg/injection, schedule: Q01DX001 (ip), vehicle: sodium bicarbonate): 174 % of control
- T/C (endpoint: median survival time, dose: 25.0 mg/kg/injection, schedule: Q04DX003 (ip), vehicle: saline): 361 % of control
- T/C (endpoint: median survival time, dose: 25.0 mg/kg/injection, schedule: Q04DX003 (ip), vehicle: sodium bicarbonate): 357 % of control
- T/C (endpoint: median survival time, dose: 26.64 mg/kg/injection, schedule: Q04DX003 (ip), vehicle: sodium bicarbonate): 345 % of control
- T/C (endpoint: median survival time, dose: 30.0 mg/kg/injection, schedule: Q01DX001 (ip), vehicle: sodium bicarbonate): 170 % of control and 175 % of control and 333 % of control
- T/C (endpoint: median survival time, dose: 30.0 mg/kg/injection, schedule: Q04DX003 (ip), vehicle: sodium bicarbonate): 323 % of control
- T/C (endpoint: median survival time, dose: 40.0 mg/kg/injection, schedule: Q01DX001 (ip), vehicle: sodium bicarbonate): 198 % of control and 714 % of control
- T/C (endpoint: median survival time, dose: 50.0 mg/kg/injection, schedule: Q01DX001 (ip), vehicle: sodium bicarbonate): 210 % of control
- T/C (endpoint: median survival time, dose: 50.0 mg/kg/injection, schedule: Q04DX003 (ip), vehicle: sodium bicarbonate): 345 % of control
- T/C (endpoint: median survival time, dose: 64.0 mg/kg/injection, schedule: Q01DX009 (ip), vehicle: water): 89 % of control

Structure (SMILES): CC(C)CC(NC(=O)CCl)C(=O)O (centres undefined)
- T/C (endpoint: mean survival time, dose: 100.0 mg/kg/injection, schedule: Q01DX009 (ip), vehicle: saline with Tween-80): 101 % of control
- T/C (endpoint: mean survival time, dose: 100.0 mg/kg/injection, schedule: Q04DX003 (ip), vehicle: saline with Tween-80): 97 % of control
- T/C (endpoint: mean survival time, dose: 200.0 mg/kg/injection, schedule: Q01DX009 (ip), vehicle: saline with Tween-80): 96 % of control
- T/C (endpoint: mean survival time, dose: 200.0 mg/kg/injection, schedule: Q04DX003 (ip), vehicle: saline with Tween-80): 98 % of control
- T/C (endpoint: mean survival time, dose: 400.0 mg/kg/injection, schedule: Q01DX009 (ip), vehicle: saline with Tween-80): 101 % of control
- T/C (endpoint: mean survival time, dose: 400.0 mg/kg/injection, schedule: Q04DX003 (ip), vehicle: saline with Tween-80): 96 % of control

Structure (SMILES): CC1=NCCCN=C(C)CC[N-]CCC[N-]CC1.[Ni+2].[O-][Cl+3]([O-])([O-])O
- T/C (endpoint: mean survival time, dose: 25.0 mg/kg/injection, schedule: Q04DX002 (ip), vehicle: saline with Tween-80): 103 % of control
- T/C (endpoint: mean survival time, dose: 50.0 mg/kg/injection, schedule: Q04DX002 (ip), vehicle: saline with Tween-80): 115 % of control
- T/C (endpoint: mean survival time, dose: 100.0 mg/kg/injection, schedule: Q04DX002 (ip), vehicle: saline with Tween-80): 103 % of control
- T/C (endpoint: mean survival time, dose: 100.0 mg/kg/injection, schedule: Q04DX002 (ip), vehicle: saline): 124 % of control
